This is an account of results in patent US20250092039A1, “GLUTARIMIDE-CONTAINING PAN-KRAS-MUTANT DEGRADER COMPOUNDS AND USES THEREOF” (Tiger Biotherapeutics Inc., priority 2022, published 2025).

One assay has as its target KRAS G12V (Homo sapiens (Human), UniProt P01116, G12V). Description: KRAS G12V degradation in SW620 cells (Western blot, DC50). Type of assay: cell-based. The following applies: 24 hours. The method, then: SW620 (KRAS G12V homozygous), AsPC1 (KRAS G12D homozygous), MIA PaCa2 (KRAS G12C homozygous), A549 (KRAS G12S homozygous) and MCF7 (KRAS WT) cells were obtained from American Type Culture Collection (ATCC). […] The following day, the test compound was administered to the cells by using 1000× compound stock solution prepared in DMSO at various concentrations. After administration of the compound, the cells were then incubated at 37° C. for 24 hours. Upon completion, the cells were washed with PBS and protein was collected in Laemmli sample buffer (1×; VWR International). Proteins in cell lysate were separated by SDS-PAGE and transferred to Odyssey nitrocellulose membranes (Licor) with iblot® dry blotting transfer system (ThermoFisher). Nonspecific binding was blocked by incubating membranes with Intercept Blocking Buffer (Licor) for 1 hour at room temperature with gentle shaking. […] After washing 3 times with TBS-T, the membranes were incubated with IRDye® 800CW goat anti-rabbit IgG (1:20,000, Licor) and IRDye® 680RD goat anti-mouse IgG (1:20,000, Licor) for 1 hour. After TBS-T washes, membranes were rinsed in TBS and Western blot images were acquired by Odyssey CLx (LI-COR Biosciences).
The signal intensity of target proteins was calculated using ImageStudio software. KRAS fluorescent intensity (FLU) from DMSO (vehicle) treatment was set as 100%. Relative KRAS expression level was determined by the following formula: […]
The percentage of KRAS expression was calculated using Microsoft Excel. The half-maximal degradation concentration (DCso) values were generated by GraphPad Prism (Version 9) using the dose-response equation of variable slope (four parameters).

For a further assay, the system named is SW620 cells. Description: 3D cell growth inhibition of SW620 cells carrying endogenous KRAS G12V mutation (CellTiter-Glo 3D, GI50). The following applies: Homo sapiens, SW-620, 144 h; SW620 cells, 6 days; read-out: SW620 3D cell growth GI50. The format is cell-based. The method, then: The following day, the test compound was administered to the cells by using 1000× compound stock solution prepared in DMSO at various concentrations. 1000× compound stock solution was first diluted in culturing medium to 10×, then 10 μL compound medium was added to each well in the cell plates. After administration of the compound, the cells were then incubated at 37° C. for 6 days. Upon completion, the plates were equilibrated at room temperature for approximately 10 minutes. 100 μL of CellTiter-Glo® 3D Reagent (Promega) was added to each well. The plates were then incubated at room temperature for 30 minutes and luminescence was recorded by EnSpire plate reader (PerkinElmer).

The next assay addresses KRAS-G12V/RAF1 (Homo sapiens (Human), UniProt P01116, G12V). Description: KRAS/RAF1 binding inhibition assay (AlphaScreen). As to the method: Binding affinity against GTP-bound KRAS of the compounds disclosed herein was measured by monitoring the interaction of guanosine 5′-[β,γ-imido]triphosphate-bound (GppNHp-bound) KRAS with the RBD domain of RAF1 in the presence of the test compound. […] The test compounds in 2% DMSO (final concentration) at various concentrations were then added to the reaction mixture and incubated for 60 minutes at 4° C.
Raw ALphaScreen data were converted to a percentage of inhibition (relative to DMSO) using the following equations: • a) For a given test compound concentration X: […]
The IC50 values were determined by nonlinear regression of plots of [inhibitor] vs. percentage of inhibition with variable slope, analyzed using GraphPad Prism (Version 9).

KRAS-G12V/RAF1, sequence (P01116-2 other isoform, or with tags, fused parts or gaps G12V): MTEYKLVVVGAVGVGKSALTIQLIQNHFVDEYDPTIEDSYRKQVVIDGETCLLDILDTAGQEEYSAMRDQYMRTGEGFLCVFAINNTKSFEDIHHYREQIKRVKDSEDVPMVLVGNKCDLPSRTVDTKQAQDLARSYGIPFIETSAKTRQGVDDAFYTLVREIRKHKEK
KRAS G12V, sequence (P01116-2 other isoform, or with tags, fused parts or gaps G12V): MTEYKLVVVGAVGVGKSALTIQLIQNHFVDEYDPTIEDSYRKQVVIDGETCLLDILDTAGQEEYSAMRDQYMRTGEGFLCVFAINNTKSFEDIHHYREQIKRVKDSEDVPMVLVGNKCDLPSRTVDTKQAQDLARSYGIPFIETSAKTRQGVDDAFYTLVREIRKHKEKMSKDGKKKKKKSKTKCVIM

`C[C@@]1(O)CCCN(c2nc(OCC3(CN4CCC5(CCC(N6CCN(c7ccc8c(c7)CN([C@H]7CCC(=O)NC7=O)C8=O)CC6)CC5)CC4)CC3)nc3c(F)c(-c4cc(N)cc5ccc(F)c(F)c45)ncc23)C1` [Compound 35, (S)-3-(5-(4-(3-((1-(((7-(3-amino-7,8-difluoronaphthalen-1-yl)-8-fluoro-4-((R)-3-hydroxy-3-methylpiperidin-1-yl)pyrido[4,3-d]pyrimidin-2-yl)oxy)methyl)cyclopropyl)methyl)-3-azaspiro[5.5]undecan-9-yl)piperazin-1-yl)-1-oxoisoindolin-2-yl)piperidine-2,6-dione]: on KRAS G12V, the DC50 is more than 0.1 µM. Also, the GI50 in the assay with SW620 cells was more than 0.1 µM.

Turning to `CCc1c(F)ccc2cc(O)cc(-c3ncc4c(N5CCC[C@@](C)(O)C5)nc(OCC5(CN6CCC7(CC6)CC(CN6Cc8ccc(C9CCC(=O)NC9=O)cc8C6)C7)CC5)nc4c3F)c12` (stereo partly drawn) [Compound 34, 3-(2-((7-((1-(((7-(8-ethyl-7-fluoro-3-hydroxynaphthalen-1-yl)-8-fluoro-4-((R)-3-hydroxy-3-methylpiperidin-1-yl)pyrido[4,3-d]pyrimidin-2-yl)oxy)methyl)cyclopropyl)methyl)-7-azaspiro[3.5]nonan-2-yl)methyl)isoindolin-5-yl)piperidine-2,6-dione], at KRAS G12V, the DC50 was more than 0.1 µM. Also, the GI50 with SW620 cells was more than 0.1 µM.

At KRAS G12V, `CCc1c(F)ccc2cc(O)cc(-c3ncc4c(N5CCC[C@@](C)(O)C5)nc(OCC5(CN6CCC7(CC6)CC(C)(N6CCN(c8ccc9c(c8)CN(C8CCC(=O)NC8=O)C9=O)CC6)C7)CC5)nc4c3F)c12` (stereo partly drawn) [Compound 159, 3-[5-[4-[7-[[1-[[7-(8-ethyl-7-fluoro-3-hydroxy-1-naphthyl)-8-fluoro-4-[(3R)-3-hydroxy-3-methyl-1-piperidyl]pyrido[4,3-d]pyrimidin-2-yl]oxymethyl]cyclopropyl]methyl]-2-methyl-7-azaspiro[3.5]nonan-2-yl]piperazin-1-yl]-1-oxo-isoindolin-2-yl]piperidine-2,6-dione] yielded a DC50 of less than 0.001 µM. Also, in the assay with SW620 cells, the GI50 was less than 0.01 µM.

Molecule `CCc1c(F)ccc2cc(O)cc(-c3ncc4c(N5CCC[C@@](C)(O)C5)nc(OCC5(CN6CC7(CC(N8CCN(c9ccc%10c(c9)CN([C@H]9CCC(=O)NC9=O)C%10=O)CC8)C7)C6)CC5)nc4c3F)c12` [Compound 122, (S)-3-(5-(4-(2-((1-(((7-(8-ethyl-7-fluoro-3-hydroxynaphthalen-1-yl)-8-fluoro-4-((R)-3-hydroxy-3-methylpiperidin-1-yl)pyrido[4,3-d]pyrimidin-2-yl)oxy)methyl)cyclopropyl)methyl)-2-azaspiro[3.3]heptan-6-yl)piperazin-1-yl)-1-oxoisoindolin-2-yl)piperidine-2,6-dione] registered a DC50 on KRAS G12V of 0.001 to 0.01 µM. Also, in the assay on SW620 cells, the GI50 is less than 0.01 µM.

Turning to `CCc1c(F)ccc2cc(O)cc(-c3ncc4c(N5CCC[C@@](C)(OC)C5)nc(OCC5(CN6CCC7(CC6)CC(CN6CCN(c8ccc9c(c8)CN([C@H]8CCC(=O)NC8=O)C9=O)CC6)C7)CC5)nc4c3F)c12` [Compound 36, (S)-3-(5-(4-((7-((1-(((7-(8-ethyl-7-fluoro-3-hydroxynaphthalen-1-yl)-8-fluoro-4-((R)-3-methoxy-3-methylpiperidin-1-yl)pyrido[4,3-d]pyrimidin-2-yl)oxy)methyl)cyclopropyl)methyl)-7-azaspiro[3.5]nonan-2-yl)methyl)piperazin-1-yl)-1-oxoisoindolin-2-yl)piperidine-2,6-dione], the DC50 on KRAS G12V is more than 0.1 µM. In addition, in the assay with SW620 cells, the GI50 is more than 0.1 µM.

As for `CCc1c(F)ccc2cc(O)cc(-c3ncc4c(N5CCC[C@@](C)(O)C5)nc(OCC5(CN6CCC(N7CC(CN8CCN(c9ccc(C%10CCC(=O)NC%10=O)cc9)CC8)C7)CC6)CC5)nc4c3F)c12` (stereo partly drawn) [Compound 21, 3-(4-(4-((1-(1-((1-(((7-(8-ethyl-7-fluoro-3-hydroxynaphthalen-1-yl)-8-fluoro-4-((R)-3-hydroxy-3-methylpiperidin-1-yl)pyrido[4,3-d]pyrimidin-2-yl)oxy)methyl)cyclopropyl)methyl)piperidin-4-yl)azetidin-3-yl)methyl)piperazin-1-yl)phenyl)piperidine-2,6-dione], the DC50 at KRAS G12V was more than 0.1 µM. The GI50 with SW620 cells was more than 0.1 µM.

`CCc1c(F)ccc2cc(O)cc(-c3ncc4c(N5CCCNC(=O)C5)nc(OCC5(CN6CCC7(CC6)CC(CN6CCN(c8ccc9c(c8)CN([C@H]8CCC(=O)NC8=O)C9=O)CC6)C7)CC5)nc4c3F)c12` [Compound 93, (S)-3-(5-(4-((7-((1-(((7-(8-ethyl-7-fluoro-3-hydroxynaphthalen-1-yl)-8-fluoro-4-(3-oxo-1,4-diazepan-1-yl)pyrido[4,3-d]pyrimidin-2-yl)oxy)methyl)cyclopropyl)methyl)-7-azaspiro[3.5]nonan-2-yl)methyl)piperazin-1-yl)-1-oxoisoindolin-2-yl)piperidine-2,6-dione] returned a half-maximal degradation concentration (DC50) at KRAS G12V of more than 0.1 µM. The GI50 with SW620 cells is more than 0.1 µM.

On KRAS G12V, `CCc1c(F)ccc2cc(O)cc(-c3ncc4c(N5CCC[C@]6(CCO6)C5)nc(OCC5(CN6CC7(CCC(N8CCN(c9cc(F)c(C%10CCC(=O)NC%10=O)c(F)c9)CC8)CC7)C6)CC5)nc4c3F)c12` (stereo partly drawn) [Compound 85, 3-(4-(4-(2-((1-(((7-(8-ethyl-7-fluoro-3-hydroxynaphthalen-1-yl)-8-fluoro-4-((S)-1-oxa-6-azaspiro[3.5]nonan-6-yl)pyrido[4,3-d]pyrimidin-2-yl)oxy)methyl)cyclopropyl)methyl)-2-azaspiro[3.5]nonan-7-yl)piperazin-1-yl)-2,6-difluorophenyl)piperidine-2,6-dione] came in with a DC50 of 0.001 to 0.01 µM. The GI50 in the assay on SW620 cells was less than 0.01 µM.

Consider `C[C@@]1(O)CCCN(c2nc(OCC3(CN4CCC(CN5CCN(c6ccc7c(c6)CN([C@H]6CCC(=O)NC6=O)C7=O)CC5)CC4)CC3)nc3c(F)c(-c4cc(O)cc5ccc(F)c(F)c45)ncc23)C1` [Compound 111, (S)-3-(5-(4-((1-((1-(((7-(7,8-difluoro-3-hydroxynaphthalen-1-yl)-8-fluoro-4-((R)-3-hydroxy-3-methylpiperidin-1-yl)pyrido[4,3-d]pyrimidin-2-yl)oxy)methyl)cyclopropyl)methyl)piperidin-4-yl)methyl)piperazin-1-yl)-1-oxoisoindolin-2-yl)piperidine-2,6-dione], for which the IC50 on KRAS-G12V/RAF1 is 0.02 to 0.2 µM. This molecule had a DC50 at KRAS G12V of 0.001 to 0.01 µM.

At KRAS-G12V/RAF1, `CCc1cccc2cc(O)cc(-c3ncc4c(N5CCOC[C@](C)(O)C5)nc(OCC5(CN6CCC7(CC6)CC(CN6CCN(c8ccc9c(c8)CN([C@H]8CCC(=O)NC8=O)C9=O)CC6)C7)CC5)nc4c3F)c12` [Compound 107, (S)-3-(5-(4-((7-((1-(((7-(8-ethyl-3-hydroxynaphthalen-1-yl)-8-fluoro-4-((R)-6-hydroxy-6-methyl-1,4-oxazepan-4-yl)pyrido[4,3-d]pyrimidin-2-yl)oxy)methyl)cyclopropyl)methyl)-7-azaspiro[3.5]nonan-2-yl)methyl)piperazin-1-yl)-1-oxoisoindolin-2-yl)piperidine-2.6-dione] came in with an IC50 of more than 0.2 µM. Besides, the DC50 on KRAS G12V was more than 0.1 µM.

With `CCc1c(F)ccc2cc(O)cc(-c3ncc4c(N5CCOC[C@](C)(O)C5)nc(OCC5(CN6CCC(CN7CCN(c8ccc9c(c8)CN([C@H]8CCC(=O)NC8=O)C9=O)CC7)CC6)CC5)nc4c3F)c12` [Compound 112, (S)-3-(5-(4-((1-((1-(((7-(8-ethyl-7-fluoro-3-hydroxynaphthalen-1-yl)-8-fluoro-4-((R)-6-hydroxy-6-methyl-1,4-oxazepan-4-yl)pyrido[4,3-d]pyrimidin-2-yl)oxy)methyl)cyclopropyl)methyl)piperidin-4-yl)methyl)piperazin-1-yl)-1-oxoisoindolin-2-yl)piperidine-2,6-dione], at KRAS-G12V/RAF1, the IC50 is more than 0.2 µM. In addition, the DC50 at KRAS G12V was more than 0.1 µM.
